Reference: US5244895A, “Anti-ulcer agent” (Hidaka; Hiroyoshi, priority 1991, dated 1993)
Read-outs that look alike come from different tables or passages of the source.

Key:
Assay type in all cases: in vivo, Crj:Wistar rat (male)
aspirin ulcer [1] = assay: Anti-aspirin ulcer test, oral administration; conditions: 100 mg/kg oral, 6 h; for Gastric damage index: 30 min before aspirin 200 mg/kg oral, control 76.0; for inhibition in vivo at 100 mg/kg: Rattus norvegicus, gastric damage index vs control, aspirin 200 mg/kg, read-out: Inhibition rate
Procedure: (§1) Each 100 mg/kg of the test compounds was administered orally to a male Crj:Wistar rat of 198 to 243 g body weight fasted for ca. 24 hours (7 to 8 rats per group) and 30 minutes after the administration 200 mg/5 ml/kg of aspirin suspended in 0.5% sodium CMC aqueous solution was administered orally. Six hours later the animals was killed by exsanguination and the cardia part of stomach was ligated and 10 ml of 1% formaline solution was poured into the stomach and the stomach was extirpated. Then, it was incised along the greater curvature side and washed with physiological saline and the major axis of the spotted and linear erosion and ulcer were measured under a steromicroscope and their total sum per head was calculated as the gastric damage index (mm) and the effect was judged by the inhibiting rate against the control group [(Gastric damage index of the control group-Gastric damage index of the test compound)/Gastric damage index of the control group×100]. 0.5 ml/body weight of 1% pontamine sky blue physiological saline was injected intravenously 10 minutes before the slaughter. The test compound was administered after dissolved in physiological saline or in physiological saline containing Tween 80 added. Five […] of physiological saline was administered to the control group.

gastric juice secretion [2] = assay: Anti-gastric juice secretion test, intraduodenal administration (pylorus ligation); conditions: 100 mg/kg intraduodenal, 4 h after pylorus ligation; for pH of gastric juice: control 1.7; for Amount of gastric juice: control 2.6; for Free hydrochloric acid: control 116; for Total acidity: control 168
Procedure: Each 100 mg/kg of the test compounds was administered duodenally to a male Crj:Wistar rat of 205 to 240 g body weight fasted for ca. 24 hours (7 to 8 rats per group) and immediately after the dose the pylorus was ligated under diethyl ether anesthesia. Four hours after the ligation, the animal was killed and the stomach was isolated and the amount and the pH of gastric juice and free hydrochloric acid contained in it and the total acidity of it were measured to examine the effect of inhibiting gastric juice secretion. The test compounds were dosed after dissolved in physiological saline or in physiological saline containing Tween 80 added. Five […] of physiological saline was administered to the control group.

[3] = system: water immersion restriction stress ulcer; assay: Water immersion restriction stress ulcer, oral administration; conditions: for Gastric damage index: 30 min before 6 h water immersion stress, control 15.7; for inhibition in vivo at 100 mg/kg: Rattus norvegicus, 6 h, read-out: Inhibition rate
Procedure: (§2) After the stress loading, the animal was killed by exsanguination and the cardia part of stomach was ligated and then 10 ml of 1% formalin was poured into the stomach and the stomach was extirpated. […] 0.5 ml/body weight of 1% pontamine sky blue physiological saline was injected intravenously 10 minutes before the slaughter. The test compound was administered after dissolved in physiological saline or in physiological saline containing Tween 80 added. Five […] of physiological saline was administered to the control group.

aspirin ulcer [4] = assay: Anti-aspirin ulcer test, intraperitoneal administration; conditions: for Gastric damage index: 100 mg/kg intraperitoneal (abdominally injected), control 58.8; for Inhibition rate: gastric damage index vs control, 100 mg/kg intraperitoneal
Procedure: as §1
Each 100 mg/kg of the test compound was abdominally injected to a male Crj:Wistar rat of 210 to 265 g body weight fasted for ca. 24 hours (7 to 8 rats per group) and the procedures were carried out in a same manner as in oral administration.

gastric juice secretion [5] = assay: Anti-gastric juice secretion test, intraperitoneal administration (pylorus ligation); conditions: 100 mg/kg intraperitoneal, 30 min before pylorus ligation; for pH of gastric juice: control 1.7; for Amount of gastric juice: control 3.2; for Free hydrochloric acid: control 155; for Total acidity: control 208
[6] = system: water immersion restriction stress ulcer; assay: Water immersion restriction stress ulcer, intraperitoneal administration; conditions: 100 mg/kg intraperitoneal; for Gastric damage index: control 22.7; for Inhibition rate: gastric damage index vs control
Procedure: as §2

[7] = gastric damage index vs control, 100 mg/kg oral, water immersion stress

| SMILES | Gastric damage index (aspirin ulcer [1]) [mm] | inhibition in vivo at 100 mg/kg (aspirin ulcer [1]) [%] | pH of gastric juice (gastric juice secretion [2]) | Amount of gastric juice (gastric juice secretion [2]) [ml/100 g body weight] | Free hydrochloric acid (gastric juice secretion [2]) [μEq/100 g body weight] | Total acidity (gastric juice secretion [2]) [μEq/100 g body weight] | Gastric damage index ([3]; 100 mg/kg oral) [mm] | inhibition in vivo at 100 mg/kg [3, 7] [%] | Gastric damage index (aspirin ulcer [4]) [mm] | Inhibition rate (aspirin ulcer [4]) [%] | pH of gastric juice (gastric juice secretion [5]) | Amount of gastric juice (gastric juice secretion [5]) [ml/100 g body weight] | Free hydrochloric acid (gastric juice secretion [5]) [μEq/100 body weight] | Total acidity (gastric juice secretion [5]) [μEq/100 body weight] | Gastric damage index [6] [mm] | Inhibition rate [6] [%] | inhibition in vivo at 100 mg/kg ([3]; po) [%] |
| --- | --- | --- | --- | --- | --- | --- | --- | --- | --- | --- | --- | --- | --- | --- | --- | --- | --- |
| CN(C(Cc1ccc(OS(=O)(=O)c2cccc3cnccc23)cc1)CN1CCC(c2ccccc2)CC1)S(=O)(=O)c1cccc2cnccc12 (stereo not drawn) [(10), N-{1-(p-(5-isoquinolinesulfonyloxy)benzyl]-2-(4-phenylpiperidino)ethyl}-N-methyl-5-isoquinoline sulfonamide] | 48.3 | 37 | 1.8 | 2.4 | 68 | 102 | 11.2 | 29 | – | – | – | – | – | – | – | – | – |
| COc1ccc(CC(CN2CCC(OCc3ccc(Cl)c(Cl)c3)CC2)N(C)S(=O)(=O)c2cccc3cnccc23)cc1 (stereo not drawn) [(9), N-{1-(p-methoxybenzyl)-2-[4-(3,4-dichlorobenzyloxy)piperidino]ethyl}-N-methyl-5-isoquinoline sulfonamide] | 45.4 | 40 | 2.1 | 2.2 | 44 | 89 | 9.7 | 38 | – | – | – | – | – | – | – | – | – |
| O=S(=O)(NC(Cc1ccc(O)cc1)CN1CCN(c2ccccc2)CC1)c1cccc2cnccc12 (stereo not drawn) [(1), N-[1-(p-hydroxybenzyl)-2-(4-phenylpiperazinyl)ethyl]-5-isoquinoline sulfonamide] | 40.1 | 47 | 2.0 | 2.2 | 36 | 71 | 10.5 | 33 | – | – | – | – | – | – | – | – | – |
| O=S(=O)(NC(Cc1ccc(O)cc1)CN1CCC(OCc2ccc(Cl)c(Cl)c2)CC1)c1cccc2cnccc12 (stereo not drawn) [(7), N-{1-(p-hydroxybenzyl)-2-[4-(3,4-dichlorobenzyloxy)piperidino]ethyl}-5-isoquinoline sulfonamide] | 26.9 | 65 | 2.5 | 1.2 | 26 | 63 | 5.4 | 66 | 15.3 | 74 | 2.6 | 1.5 | 32 | 71 | 7.0 | 69 | – |
| O=S(=O)(NC(Cc1ccc(OS(=O)(=O)c2cccc3cnccc23)cc1)CN1CCN(c2ccc(F)cc2)CC1)c1cccc2cnccc12 (stereo not drawn) [(3), N-{2-[4-(p-fluorophenyl)piperazinyl]-1-(p-(5-isoquinolinesulfonyloxy)benzyl]ethyl}-5-isoquinoline sulfonamide] | 56.7 | 25 | 1.8 | 2.5 | 82 | 140 | 11.2 | 29 | – | – | – | – | – | – | – | – | – |
| CN(C(Cc1ccc(OS(=O)(=O)c2cccc3cnccc23)cc1)C(=O)N1CCN(c2ccccc2)CC1)S(=O)(=O)c1cccc2cnccc12 (stereo not drawn) [(13), N-[N,O-bis(5-isoquinolinesulfonyl)-N-methyltyrosyl]-4-phenylpiperizine] | 30.3 | 60 | 2.3 | 1.9 | – | – | 5.4 | 66 | 17.6 | 70 | 2.4 | 1.6 | 55 | 102 | 6.4 | 72 | – |
| O=S(=O)(NC(Cc1ccc(O)cc1)CN1CCCN(c2ccccc2)CC1)c1cccc2cnccc12 (stereo not drawn) [(6), N-[1-(p-hydroxybenzyl)-2-(4-phenylhomopiperazinyl)ethyl]-5-isoquinolinesulfonamide] | 52.9 | 30 | 1.8 | 2.3 | 53 | 87 | 12.2 | 22 | – | – | – | – | – | – | – | – | – |
| CN(C(Cc1ccc(O)cc1)CN1CCC(OCc2ccc(Cl)c(Cl)c2)CC1)S(=O)(=O)c1cccc2cnccc12 (stereo not drawn) [(8), N-{1-(p-hydroxybenzyl)-2-[4-(3,4-dichlorobenzyloxy)piperidino]ethyl}-N-methyl-5-isoquinoline sulfonamide] | 28.9 | 62 | 2.3 | 1.6 | 32 | 68 | 6.5 | – | – | – | – | – | – | – | – | – | 59 |
| CN(C(Cc1ccc(O)cc1)CN1CCC(c2ccccc2)CC1)S(=O)(=O)c1cccc2cnccc12 (stereo not drawn) [(11), N-[1-(p-hydroxybenzyl)-2-(4-phenylpiperidino)ethyl]-N-methyl-5-isoquinoline sulfonamide] | 27.3 | 64 | 2.5 | 1.5 | 36 | 65 | 6.8 | 57 | – | – | – | – | – | – | – | – | – |
| CN(C(Cc1ccc(O)cc1)CN1CCN(c2cccc(Cl)c2)CC1)S(=O)(=O)c1cccc2cnccc12 (stereo not drawn) [(2), N-{2-[4-(m-chlorophenyl)piperazinyl]-1-(p-hydroxybenzyl)ethyl}-N-methyl-5-isoquinoline sulfonamide] | 40.3 | 46 | 2.1 | 2.1 | 40 | 92 | 9.7 | 38 | – | – | – | – | – | – | – | – | – |
| O=C(C(Cc1ccc(OS(=O)(=O)c2cccc3cnccc23)cc1)NS(=O)(=O)c1cccc2cnccc12)N1CCN(c2ccccc2)CC1 (stereo not drawn) [(12), N-[N,O-bis(5-isoquinolinesulfonyl)tyrosyl]-4-phenylpiperizine] | 43.5 | 43 | 2.1 | 2.2 | 41 | 80 | 9.4 | 40 | – | – | – | – | – | – | – | – | – |
